ChEMBL document CHEMBL5385855, “Design and synthesis of hederagenin derivatives modulating STING/NF-κB signaling for the relief of acute liver injury in septic mice” (2023)
Each block holds one compound with its values, some of them ahead of it. Calls of active or inactive are those of the source. No cut-off for these calls is given here.

Columns and labels:
RAW264.7 [1] = test: Cytotoxicity against mouse RAW264.7 cells assessed as reduction in cell viability at 40 uM incubated for 4 hrs by MTT assay; assay type: functional
RAW264.7 [2] = test: Antiinflammatory activity in mouse RAW264.7 cells assessed as inhibition of LPS-induced NO production at 20 uM preincubated with compound for 2 hrs followed by LPS stimulation and measured after 24 hrs by Griess reagent based analysis; assay type: functional, cell-based; settings: time 26.0 hrs
RAW264.7 [3] = test: Antiinflammatory activity in mouse RAW264.7 cells assessed as inhibition of LPS-induced iNOS expression at 20 uM preincubated with compound for 2 hrs followed by LPS stimulation and measured after 6 hrs by ELISA analysis; assay type: functional, cell-based; settings: time 8.0 hrs
RAW264.7 [4] = test: Antiinflammatory activity in mouse RAW264.7 cells assessed as reduction in LPS-induced IL-6 level at 20 uM preincubated with compound for 2 hrs followed by LPS stimulation and measured after 6 hrs by ELISA analysis; assay type: functional, cell-based; settings: time 8.0 hrs
RAW264.7 [5] = test: Antiinflammatory activity in mouse RAW264.7 cells assessed as reduction in LPS-induced TNF-alpha level at 20 uM preincubated with compound for 2 hrs followed by LPS stimulation and measured after 6 hrs by ELISA analysis; assay type: functional, cell-based; settings: time 8.0 hrs
RAW264.7 [6] = test: Antiinflammatory activity in mouse RAW264.7 cells assessed as reduction in LPS-induced IFN-beta level at 20 uM preincubated with compound for 2 hrs followed by LPS stimulation and measured after 6 hrs by ELISA analysis; assay type: functional, cell-based; settings: time 8.0 hrs
[7] = target: T1, Stimulator of interferon genes protein (Mus musculus) (UniProt Q3TBT3); test: Binding affinity to STING in mouse RAW264.7 cells assessed as thermal stabilization at 49 to 55 degree C at 5 to 50 uM measured for 12 hrs by cellular thermal shift assay; assay type: cell-based; settings: filed as modulator, dose 5-50 µM
T1 sequence (whole entry): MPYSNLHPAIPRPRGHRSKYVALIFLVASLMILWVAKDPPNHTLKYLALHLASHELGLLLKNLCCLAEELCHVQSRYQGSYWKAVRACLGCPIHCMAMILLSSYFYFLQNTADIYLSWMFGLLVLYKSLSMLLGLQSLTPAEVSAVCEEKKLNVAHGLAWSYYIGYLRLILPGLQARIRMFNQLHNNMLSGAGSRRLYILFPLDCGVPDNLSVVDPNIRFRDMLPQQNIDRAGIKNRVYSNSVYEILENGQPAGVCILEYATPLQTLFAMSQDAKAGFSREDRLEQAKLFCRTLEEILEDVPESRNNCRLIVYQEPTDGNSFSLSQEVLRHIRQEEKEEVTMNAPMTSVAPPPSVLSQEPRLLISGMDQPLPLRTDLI

[8] = target: T1, Stimulator of interferon genes protein (Mus musculus); test: Activation of STING signaling pathway in mouse RAW264.7 cells assessed as inhibition of LPS-induced TBK1 phosphorylation at 2.5 to 10 uM pretreated with compound for 2 hrs followed by LPS-induction and measured after 6 hrs by Western blot analysis; assay type: cell-based; settings: filed as activator, dose 2.5-10 µM, time 8.0 hrs
[9] = target: T1, Stimulator of interferon genes protein (Mus musculus); test: Activation of STING signaling pathway in mouse RAW264.7 cells assessed as inhibition of LPS-induced IRF3 phosphorylation at 2.5 to 10 uM pretreated with compound for 2 hrs followed by LPS-induction and measured after 6 hrs by Western blot analysis; assay type: cell-based; settings: filed as activator, dose 2.5-10 µM, time 8.0 hrs
[10] = target: T1, Stimulator of interferon genes protein (Mus musculus); test: Activation of STING signaling pathway in mouse RAW264.7 cells assessed as inhibition of LPS-induced p65 phosphorylation at 2.5 to 10 uM pretreated with compound for 2 hrs followed by LPS-induction and measured after 6 hrs by Western blot analysis; assay type: cell-based; settings: filed as activator, dose 2.5-10 µM, time 8.0 hrs
[11] = target: T1, Stimulator of interferon genes protein (Mus musculus); test: Activation of STING signaling pathway in mouse RAW264.7 cells assessed as inhibition of LPS-induced IkappaB-alpha phosphorylation at 2.5 to 10 uM pretreated with compound for 2 hrs followed by LPS-induction and measured after 6 hrs by Western blot analysis; assay type: cell-based; settings: filed as activator, dose 2.5-10 µM, time 8.0 hrs
Mus musculus [12] = test: Antiinflammatory activity against LPS-induced liver injury BALB/c mouse model assessed as reduction in hemorrhage severity at 1 to 9 mg/kg, ip pretreated with compound for 3 days followed by LPS-induction and measured after 12 hrs by H and E staining based analysis; assay type: functional, organism-based; settings: dose 1-9 mg/kg, time 3.5 day
Mus musculus [13] = test: Antiinflammatory activity against LPS-induced liver injury BALB/c mouse model assessed as reduction in ALT level in serum at 1 to 9 mg/kg, ip pretreated with compound for 3 days followed by LPS-induction and measured after 12 hrs; assay type: functional, organism-based; settings: dose 1-9 mg/kg, time 3.5 day
Mus musculus [14] = test: Antiinflammatory activity against LPS-induced liver injury BALB/c mouse model assessed as reduction in AST level in serum at 1 to 9 mg/kg, ip pretreated with compound for 3 days followed by LPS-induction and measured after 12 hrs; assay type: functional, organism-based; settings: dose 1-9 mg/kg, time 3.5 day
Mus musculus [15] = test: Antiinflammatory activity against LPS-induced liver injury BALB/c mouse model assessed as reduction in ALP level in serum at 1 to 9 mg/kg, ip pretreated with compound for 3 days followed by LPS-induction and measured after 12 hrs; assay type: functional, organism-based; settings: dose 1-9 mg/kg, time 3.5 day
Mus musculus [16] = test: Antiinflammatory activity against LPS-induced liver injury BALB/c mouse model assessed as reduction in TNF-alpha level in liver at 1 to 9 mg/kg, ip pretreated with compound for 3 days followed by LPS-induction and measured after 12 hrs; assay type: functional, organism-based; settings: dose 1-9 mg/kg, time 3.5 day
Mus musculus [17] = test: Antiinflammatory activity against LPS-induced liver injury BALB/c mouse model assessed as reduction in IL-6 level in liver at 1 to 9 mg/kg, ip pretreated with compound for 3 days followed by LPS-induction and measured after 12 hrs; assay type: functional, organism-based; settings: dose 1-9 mg/kg, time 3.5 day
Mus musculus [18] = test: Antiinflammatory activity against LPS-induced liver injury BALB/c mouse model assessed as reduction in IFN-beta level in liver at 1 to 9 mg/kg, ip pretreated with compound for 3 days followed by LPS-induction and measured after 12 hrs; assay type: functional, organism-based; settings: dose 1-9 mg/kg, time 3.5 day
Mus musculus [19] = test: In-vivo inhibition of STING/IRF3/NF-kappaB activation in liver septic mouse model assessed as reduction in STING level at 1 to 9 mg/kg, ip pretreated with compound for 3 days followed by LPS-induction and measured after 2 hrs by Western blotting analysis; assay type: functional, organism-based; settings: dose 1-9 mg/kg, time 74.0 hrs
Mus musculus [20] = test: In-vivo inhibition of STING/IRF3/NF-kappaB activation in liver septic mouse model assessed as reduction in TBK phosphorylation at 1 to 9 mg/kg, ip pretreated with compound for 3 days followed by LPS-induction and measured after 2 hrs by Western blotting analysis; assay type: functional, organism-based; settings: dose 1-9 mg/kg, time 74.0 hrs
Mus musculus [21] = test: In-vivo inhibition of STING/IRF3/NF-kappaB activation in liver septic mouse model assessed as reduction in IRF3 phosphorylation at 1 to 9 mg/kg, ip pretreated with compound for 3 days followed by LPS-induction and measured after 2 hrs by Western blotting analysis; assay type: functional, organism-based; settings: dose 1-9 mg/kg, time 74.0 hrs
Mus musculus [22] = test: In-vivo inhibition of STING/IRF3/NF-kappaB activation in liver septic mouse model assessed as reduction in p65 phosphorylation at 1 to 9 mg/kg, ip pretreated with compound for 3 days followed by LPS-induction and measured after 2 hrs by Western blotting analysis; assay type: functional, organism-based; settings: dose 1-9 mg/kg, time 74.0 hrs
Mus musculus [23] = test: In-vivo inhibition of STING/IRF3/NF-kappaB activation in liver septic mouse model assessed as reduction in IkappaB-alpha phosphorylation at 1 to 9 mg/kg, ip pretreated with compound for 3 days followed by LPS-induction and measured after 2 hrs by Western blotting analysis; assay type: functional, organism-based; settings: dose 1-9 mg/kg, time 74.0 hrs

SMILES: CN1CCN(C(=O)CCC(=O)OC[C@]2(C)c3nccnc3C[C@@]3(C)[C@H]2CC[C@]2(C)[C@@H]3CC=C3[C@@H]4CC(C)(C)CC[C@]4(C(=O)OCc4ccccc4)CC[C@]32C)CC1
Activity (RAW264.7 [1]): <90%

SMILES: CCOC(=O)c1noc2c1C[C@@]1(C)[C@@H](CC[C@]3(C)[C@@H]1CC=C1[C@@H]4CC(C)(C)CC[C@]4(C(=O)OCc4ccccc4)CC[C@]13C)[C@]2(C)CO
Activity (RAW264.7 [1]): >90%

Activity [7]: Active
Activity [8]: Active
Activity [9]: Active
Activity [10]: Active
Activity [11]: Active
SMILES: CC1(C)CC[C@]2(C(=O)O)CC[C@]3(C)C(=CC[C@@H]4[C@@]5(C)Cc6nccnc6[C@@](C)(CO)[C@@H]5CC[C@]43C)[C@@H]2C1
Activity (RAW264.7 [1]): >90%
Activity (RAW264.7 [2]): Active
Activity (RAW264.7 [3]): Active
Activity (RAW264.7 [4]): Active
Activity (RAW264.7 [5]): Active
Activity (RAW264.7 [6]): Active
Activity (Mus musculus [12]): Active
Activity (Mus musculus [13]): Active
Activity (Mus musculus [14]): Active
Activity (Mus musculus [15]): Active
Activity (Mus musculus [16]): Active
Activity (Mus musculus [17]): Active
Activity (Mus musculus [18]): Active
inhibition (Mus musculus [19]): Active
inhibition (Mus musculus [20]): Active
inhibition (Mus musculus [21]): Active
inhibition (Mus musculus [22]): Active
inhibition (Mus musculus [23]): Active

SMILES: CC1(C)CC[C@]2(C(=O)OCc3ccccc3)CC[C@]3(C)C(=CC[C@@H]4[C@@]5(C)Cc6nccnc6[C@@](C)(COC(=O)CCC(=O)N6CCCCC6)[C@@H]5CC[C@]43C)[C@@H]2C1
Activity (RAW264.7 [1]): >90%
Activity (RAW264.7 [2]): Active

SMILES: CC1(C)CC[C@]2(C(=O)N3CCCC3C(=O)O)CC[C@]3(C)C(=CC[C@@H]4[C@@]5(C)Cc6nccnc6[C@@](C)(CO)[C@@H]5CC[C@]43C)[C@@H]2C1 (some centres not stated)
Activity (RAW264.7 [1]): >90%
Activity (RAW264.7 [2]): Active

Activity [8]: Active
Activity [9]: Active
Activity [10]: Active
Activity [11]: Active
SMILES: O=C(Nc1ccc(I)cc1)c1ccc([N+](=O)[O-])o1
Activity (Mus musculus [12]): Active
Activity (Mus musculus [13]): Active
Activity (Mus musculus [14]): Active
Activity (Mus musculus [15]): Active
Activity (Mus musculus [16]): Active
Activity (Mus musculus [17]): Active
Activity (Mus musculus [18]): Active
inhibition (Mus musculus [19]): Active
inhibition (Mus musculus [20]): Active
inhibition (Mus musculus [21]): Active
inhibition (Mus musculus [22]): Active
inhibition (Mus musculus [23]): Active

SMILES: CC1(C)CC[C@]2(C(=O)OCc3ccccc3)CC[C@]3(C)C(=CC[C@@H]4[C@@]5(C)Cc6nccnc6[C@@](C)(COC(=O)CCC(=O)Nc6ncn[nH]6)[C@@H]5CC[C@]43C)[C@@H]2C1
Activity (RAW264.7 [1]): <90%

SMILES: CC1(C)CC[C@]2(C(=O)NC(Cc3ccccc3)C(=O)O)CC[C@]3(C)C(=CC[C@@H]4[C@@]5(C)Cc6nccnc6[C@@](C)(CO)[C@@H]5CC[C@]43C)[C@@H]2C1 (some centres not stated)
Activity (RAW264.7 [1]): >90%
Activity (RAW264.7 [2]): Active

SMILES: CC1(C)CC[C@]2(C(=O)OCc3ccccc3)CC[C@]3(C)C(=CC[C@@H]4[C@@]5(C)Cc6nccnc6[C@@](C)(COC(=O)CCC(=O)n6nnc7ccccc76)[C@@H]5CC[C@]43C)[C@@H]2C1
Activity (RAW264.7 [1]): <90%

SMILES: CC1(C)CC[C@]2(C(=O)OCc3ccccc3)CC[C@]3(C)C(=CC[C@@H]4[C@@]5(C)Cc6nccnc6[C@@](C)(COC(=O)CCC(=O)n6cccn6)[C@@H]5CC[C@]43C)[C@@H]2C1
Activity (RAW264.7 [1]): <90%

SMILES: CC1(C)CC[C@]2(C(=O)N3CCOCC3)CC[C@]3(C)C(=CC[C@@H]4[C@@]5(C)Cc6nccnc6[C@@](C)(CO)[C@@H]5CC[C@]43C)[C@@H]2C1
Activity (RAW264.7 [1]): >90%
Activity (RAW264.7 [2]): Active

SMILES: CC(C)CC(NC(=O)[C@]12CCC(C)(C)C[C@H]1C1=CC[C@@H]3[C@@]4(C)Cc5nccnc5[C@@](C)(CO)[C@@H]4CC[C@@]3(C)[C@]1(C)CC2)C(=O)O (some centres not stated)
Activity (RAW264.7 [1]): >90%

SMILES: CC1(C)CC[C@]2(C(=O)OCc3ccccc3)CC[C@]3(C)C(=CC[C@@H]4[C@@]5(C)Cc6nccnc6[C@@](C)(COC(=O)CCC(=O)N6CCCC6)[C@@H]5CC[C@]43C)[C@@H]2C1
Activity (RAW264.7 [1]): <90%

SMILES: Cc1nc2c(s1)C[C@@]1(C)[C@@H](CC[C@]3(C)[C@@H]1CC=C1[C@@H]4CC(C)(C)CC[C@]4(C(=O)O)CC[C@]13C)[C@]2(C)CO
Activity (RAW264.7 [1]): >90%

SMILES: CCOC(=O)c1noc2c1C[C@@]1(C)[C@@H](CC[C@]3(C)[C@@H]1CC=C1[C@@H]4CC(C)(C)CC[C@]4(C(=O)OCc4ccccc4)CC[C@]13C)[C@]2(C)COC(=O)CCC(=O)O
Activity (RAW264.7 [1]): >90%

SMILES: CC1(C)CC[C@]2(C(=O)OCc3ccccc3)CC[C@]3(C)C(=CC[C@@H]4[C@@]5(C)Cc6nccnc6[C@@](C)(COC(=O)CCC(=O)N6CCOCC6)[C@@H]5CC[C@]43C)[C@@H]2C1
Activity (RAW264.7 [1]): <90%
